According to patent publication US20230085307A1, “PYRIDAZINONE COMPOUND AND HERBICIDE” (NISSAN CHEMICAL CORPORATION, priority 2019, published 2023):

Experiments:
velvetleaf [1] = assay: Test Example 4: herbicidal effect by soil treatment (Table 19, symbol M); type: in vivo, velvetleaf (Abutilon theophrasti); settings: AAH 320 g/ha
How it was run: (§1)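 In this soil treatment, the formulated compound reached the seeds only through the soil: seeds were buried about 1.5 cm deep in sterilized diluvial soil, then the diluted emulsion was sprayed over the surface. After three weeks at 25° C. to 30° C. in a greenhouse, effects were graded on criteria from an earlier test.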

windgrass [2] = assay: Test Example 5: herbicidal effect by foliage application, plastic box (Table 20, symbol L); type: in vivo, windgrass (Apera spica-venti); settings: foliage application, AAH 320 g/ha, three weeks after application
How it was run: (§2)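 Plants were sown into sterilized diluvial soil under about 1.5 cm cover and kept in a greenhouse at 25° C. to 30° C. Fourteen days on, foliage received an even spray of the diluted emulsion. Herbicidal or crop effect was judged three weeks afterwards.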

wild oat [3] = assay: Test Example 4: herbicidal effect by soil treatment (Table 19, symbol I); type: in vivo, wild oat (Avena fatua); settings: AAH 320 g/ha
How it was run: as §1

green foxtail [4] = assay: Test Example 5: herbicidal effect by foliage application, plastic box (Table 20, symbol G); type: in vivo, green foxtail (Setaria viridis); settings: foliage application, AAH 320 g/ha, three weeks after application
How it was run: as §2

chickweed [5] = assay: Test Example 5: herbicidal effect by foliage application, plastic box (Table 20, symbol P); type: in vivo, common chickweed (Stellaria media); settings: foliage application, AAH 320 g/ha, three weeks after application
How it was run: as §2

rice flat sedge = assay: Test Example 3: herbicidal effect by foliage application, Wagner pot (Table 18, symbol E); type: in vivo, rice flat sedge (Cyperus iria); settings: 320 g/ha
How it was run: (§3)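 Plants were sown in alluvial soil held under 0.1–0.5 cm standing water and grown 14 days in a greenhouse at 25–30 °C. An emulsifiable formulation, water-diluted to the set dose, was then sprayed onto the foliage, and effects were scored three weeks later using previously defined criteria.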

barnyard grass [6] = assay: Test Example 4: herbicidal effect by soil treatment (Table 19, symbol H); type: in vivo, barnyard grass (Echinochloa crus-galli); settings: AAH 320 g/ha
How it was run: as §1

redroot pigweed [7] = assay: Test Example 5: herbicidal effect by foliage application, plastic box (Table 20, symbol N); type: in vivo, redroot pigweed (Amaranthus retroflexus); settings: foliage application, AAH 320 g/ha, three weeks after application
How it was run: as §2

barnyard grass [8] = assay: Test Example 5: herbicidal effect by foliage application, plastic box (Table 20, symbol H); type: in vivo, barnyard grass (Echinochloa crus-galli); settings: foliage application, AAH 320 g/ha, three weeks after application
How it was run: as §2

lambsquarters [9] = assay: Test Example 5: herbicidal effect by foliage application, plastic box (Table 20, symbol O); type: in vivo, lambsquarters (Chenopodium album); settings: foliage application, AAH 320 g/ha, three weeks after application
How it was run: as §2

southern crabgrass [10] = assay: Test Example 5: herbicidal effect by foliage application, plastic box (Table 20, symbol F); type: in vivo, southern crabgrass (Digitaria ciliaris); settings: foliage application, AAH 320 g/ha, three weeks after application
How it was run: as §2

persian speedwell [11] = assay: Test Example 5: herbicidal effect by foliage application, plastic box (Table 20, symbol R); type: in vivo, Persian speedwell (Veronica persica); settings: foliage application, AAH 320 g/ha, three weeks after application
How it was run: as §2

velvetleaf [12] = assay: Test Example 5: herbicidal effect by foliage application, plastic box (Table 20, symbol M); type: in vivo, velvetleaf (Abutilon theophrasti); settings: foliage application, AAH 320 g/ha, three weeks after application
How it was run: as §2

blackgrass [13] = assay: Test Example 4: herbicidal effect by soil treatment (Table 19, symbol J); type: in vivo, blackgrass (Alopecurus myosuroides); settings: AAH 320 g/ha
How it was run: as §1

persian speedwell [14] = assay: Test Example 4: herbicidal effect by soil treatment (Table 19, symbol R); type: in vivo, Persian speedwell (Veronica persica); settings: AAH 320 g/ha
How it was run: as §1

chickweed [15] = assay: Test Example 4: herbicidal effect by soil treatment (Table 19, symbol P); type: in vivo, common chickweed (Stellaria media); settings: AAH 320 g/ha
How it was run: as §1

windgrass [16] = assay: Test Example 4: herbicidal effect by soil treatment (Table 19, symbol L); type: in vivo, windgrass (Apera spica-venti); settings: AAH 320 g/ha
How it was run: as §1

wild oat [17] = assay: Test Example 5: herbicidal effect by foliage application, plastic box (Table 20, symbol I); type: in vivo, wild oat (Avena fatua); settings: foliage application, AAH 320 g/ha, three weeks after application
How it was run: as §2

false cleavers = assay: Test Example 4: herbicidal effect by soil treatment (Table 19, symbol Q); type: in vivo, false cleavers (Galium spurium); settings: AAH 320 g/ha
How it was run: as §1

Italian ryegrass [18] = assay: Test Example 4: herbicidal effect by soil treatment (Table 19, symbol K); type: in vivo, Italian ryegrass (Lolium multiflorum); settings: AAH 320 g/ha
How it was run: as §1

southern crabgrass [19] = assay: Test Example 4: herbicidal effect by soil treatment (Table 19, symbol F); type: in vivo, southern crabgrass (Digitaria ciliaris); settings: AAH 320 g/ha
How it was run: as §1

redroot pigweed [20] = assay: Test Example 4: herbicidal effect by soil treatment (Table 19, symbol N); type: in vivo, redroot pigweed (Amaranthus retroflexus); settings: AAH 320 g/ha
How it was run: as §1

green foxtail [21] = assay: Test Example 4: herbicidal effect by soil treatment (Table 19, symbol G); type: in vivo, green foxtail (Setaria viridis); settings: AAH 320 g/ha
How it was run: as §1

lambsquarters [22] = assay: Test Example 4: herbicidal effect by soil treatment (Table 19, symbol O); type: in vivo, lambsquarters (Chenopodium album); settings: AAH 320 g/ha
How it was run: as §1

blackgrass [23] = assay: Test Example 5: herbicidal effect by foliage application, plastic box (Table 20, symbol J); type: in vivo, blackgrass (Alopecurus myosuroides); settings: foliage application, AAH 320 g/ha, three weeks after application
How it was run: as §2

Chinese sprangletop = assay: Test Example 3: herbicidal effect by foliage application, Wagner pot (Table 18, symbol D); type: in vivo, chinese sprangletop (Leptochloa chinensis); settings: 320 g/ha
How it was run: as §3

Italian ryegrass [24] = assay: Test Example 5: herbicidal effect by foliage application, plastic box (Table 20, symbol K); type: in vivo, Italian ryegrass (Lolium multiflorum); settings: foliage application, AAH 320 g/ha, three weeks after application
How it was run: as §2

barnyard grass [25] = assay: Test Example 3: herbicidal effect by foliage application, Wagner pot (Table 18, symbol H); type: in vivo, barnyard grass (Echinochloa crus-galli); settings: 320 g/ha
How it was run: as §3

## CCCC(=O)Oc1c(OC)nn(C)c(=O)c1-c1c(-c2ccc(F)c(C)c2)sc2ccccc12 [1-175]
Velvetleaf [1]
  M: velvetleaf, herbicidal effect rating: 3 (Herbicidal rate of 40% or more and less than 70%)
Windgrass [2]
  L: windgrass, herbicidal effect: 0 (Herbicidal rate of 5% or less (almost no effect))
Wild oat [3]
  I: wild oat, herbicidal effect rating: 0 (Herbicidal rate of 5% or less (almost no effect))
Green foxtail [4]
  G: green foxtail, herbicidal effect: 0 (Herbicidal rate of 5% or less (almost no effect))
Chickweed [5]
  P: chickweed, herbicidal effect: 5 (Herbicidal rate of 90% or more (almost completely withered))
Rice flat sedge
  herbicidal effect on E (rice flat sedge), rating 0-5: 3 (Herbicidal rate of 40% or more and less than 70%)
Barnyard grass [6]
  H: barnyard grass, herbicidal effect rating: 0 (Herbicidal rate of 5% or less (almost no effect))
Redroot pigweed [7]
  N: redroot pigweed, herbicidal effect: 0 (Herbicidal rate of 5% or less (almost no effect))
Barnyard grass [8]
  H: barnyard grass, herbicidal effect: 0 (Herbicidal rate of 5% or less (almost no effect))
Lambsquarters [9]
  O: lambsquarters, herbicidal effect: 0 (Herbicidal rate of 5% or less (almost no effect))
Southern crabgrass [10]
  F: southern crabgrass, herbicidal effect: 0 (Herbicidal rate of 5% or less (almost no effect))
Persian speedwell [11]
  R: persian speedwell, herbicidal effect: 4 (Herbicidal rate of 70% or more and less than 90%)
Velvetleaf [12]
  M: velvetleaf, herbicidal effect: 3 (Herbicidal rate of 40% or more and less than 70%)
Blackgrass [13]
  J: blackgrass, herbicidal effect rating: 0 (Herbicidal rate of 5% or less (almost no effect))
Persian speedwell [14]
  R: persian speedwell, herbicidal effect rating: 0 (Herbicidal rate of 5% or less (almost no effect))
Chickweed [15]
  P: chickweed, herbicidal effect rating: 0 (Herbicidal rate of 5% or less (almost no effect))
Windgrass [16]
  L: windgrass, herbicidal effect rating: 1 (Herbicidal rate of 5% or more and less than 20%)
Wild oat [17]
  I: wild oat, herbicidal effect: 0 (Herbicidal rate of 5% or less (almost no effect))
False cleavers
  Q: false cleavers, herbicidal effect rating: 0 (Herbicidal rate of 5% or less (almost no effect))
Italian ryegrass [18]
  K: Italian ryegrass, herbicidal effect rating: 2 (Herbicidal rate of 20% or more and less than 40%)
Southern crabgrass [19]
  F: southern crabgrass, herbicidal effect rating: 0 (Herbicidal rate of 5% or less (almost no effect))
Redroot pigweed [20]
  N: redroot pigweed, herbicidal effect rating: 4 (Herbicidal rate of 70% or more and less than 90%)
Green foxtail [21]
  G: green foxtail, herbicidal effect rating: 1 (Herbicidal rate of 5% or more and less than 20%)
Lambsquarters [22]
  O: lambsquarters, herbicidal effect rating: 4 (Herbicidal rate of 70% or more and less than 90%)
Blackgrass [23]
  J: blackgrass, herbicidal effect: 0 (Herbicidal rate of 5% or less (almost no effect))
Chinese sprangletop
  herbicidal effect on D (Chinese sprangletop), rating 0-5: 0 (Herbicidal rate of 5% or less (almost no effect))
Italian ryegrass [24]
  K: Italian ryegrass, herbicidal effect: 0 (Herbicidal rate of 5% or less (almost no effect))
Barnyard grass [25]
  herbicidal effect on H (barnyard grass), rating 0-5: 0 (Herbicidal rate of 5% or less (almost no effect))
